23 compounds from patent US9493441B2, “Acyclic cyanoethylpyrazoles as janus kinase inhibitors” (Merck Sharp & Dohme Corp., priority 2011, dated 2016) can be followed below.

As a reminder, the IC50 is the concentration that inhibits the measured activity by half. The pIC50 is the negative decadic logarithm of the IC50, by convention in mol/L.

The target of one experiment is JAK1 (Homo sapiens (Human), UniProt P23458). The experiment is described as follows: Jak biochemical HTRF assay, JAK1. The conditions noted are these: for IC50: JAK1 IC50 (nM), recombinant GST-tagged catalytic domain, [ATP] 31.8 μM. (In general: Time-resolved FRET reads energy transfer from a long-lived donor to a nearby acceptor.)
JAK1, sequence (P23458 875-1153): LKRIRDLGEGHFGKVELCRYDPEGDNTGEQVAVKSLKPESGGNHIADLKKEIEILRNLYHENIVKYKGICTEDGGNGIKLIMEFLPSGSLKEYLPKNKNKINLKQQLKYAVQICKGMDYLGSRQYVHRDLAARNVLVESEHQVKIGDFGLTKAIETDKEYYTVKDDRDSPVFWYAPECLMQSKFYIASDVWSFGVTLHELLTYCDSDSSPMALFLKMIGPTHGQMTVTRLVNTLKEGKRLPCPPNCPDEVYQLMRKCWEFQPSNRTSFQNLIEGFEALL
For another experiment, the target named is JAK2 (Homo sapiens (Human), UniProt O60674). The experiment is described as follows: Jak biochemical HTRF assay, JAK2. The following applies: for IC50: JAK2 IC50 (nM), recombinant GST-tagged catalytic domain, [ATP] […]; for pIC50: read-out: JAK2 IC50, recombinant GST-tagged catalytic domain, [ATP] […].
JAK2, sequence (O60674 849-1124): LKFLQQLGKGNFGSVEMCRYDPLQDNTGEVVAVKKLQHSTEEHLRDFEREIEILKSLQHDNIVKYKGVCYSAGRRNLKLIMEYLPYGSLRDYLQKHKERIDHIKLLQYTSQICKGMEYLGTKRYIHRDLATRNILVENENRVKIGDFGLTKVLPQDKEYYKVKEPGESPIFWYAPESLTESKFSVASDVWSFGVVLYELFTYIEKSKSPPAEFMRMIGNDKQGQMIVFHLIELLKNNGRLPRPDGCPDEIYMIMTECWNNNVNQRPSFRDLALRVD

SMILES strings stand for the structures. pIC50: −log10 of the molar value. Like-named read-outs stand apart in the source and are kept apart here.

`C[C@H](C#N)[C@H](C)n1cc(C(N)=O)c(Nc2ccccc2)n1` (mixture of isomers) [Example 1-22, 1-((2S, 3S and 2R, 2R)-3-cyclobutan-2-yl)-3-(phenylamino)-1H-pyrazole-4-carboxamide]: the IC50 on JAK1 worked out at 32 nM; at JAK2, 198 nM.

Consider `CC(C)(C)OC(=O)N1CCC(C(CC#N)n2cc(C(N)=O)c(Nc3ccccc3)n2)CC1` (stereo not drawn) [Example 1-2, tert-butyl 4-{1-[4-carbamoyl-3-(phenylamino)-1H-pyrazol-1-yl]-2-cyanoethyl}piperidine-1-carboxylate], for which the figures for the IC50 on JAK1 and on JAK2 were 7 nM and 228 nM, respectively.

As to `Cc1c(Cl)ncnc1N1CCC([C@H](CC#N)n2cc(C(N)=O)c(Nc3ccc(F)cc3)n2)CC1` [Example 13, 1-{(1S)-1-[1-(6-Chloro-5-methylpyrimidin-4-yl)piperidin-4-yl]-2-cyanoethyl}-3-[(4-fluorophenyl)amino]-1H-pyrazole-4-carboxamide], the IC50 at JAK1 is 823 nM; on JAK2, 1500 nM.

Take `N#CCC(C1CC1)n1cc(C(N)=O)c(Nc2ccc3c(c2)OCCO3)n1` (stereo not drawn) [Example 4-20, 1-(2-cyano-1-cyclopropylethyl)-3-(2,3-dihydro-1,4-benzodioxin-6-ylamino)-1H-pyrazole-4-carboxamide]: the IC50 at JAK1 was found to be 24 nM; on JAK2 it was 87 nM.

`N#CC[C@@H](C1CCN(C(=O)OC2CCCCC2)CC1)n1cc(C(N)=O)c(Nc2ccc(F)cc2)n1` (single isomer, unassigned) [Example 12-5, cyclohexyl 4-[(1S or 1R)-1-{4-carbamoyl-3-[(4-fluorophenyl)amino]-1H-pyrazol-1-yl}-2-cyanoethyl]piperidine-1-carboxylate]: the concentration for half-maximal inhibition (IC50) is 628 nM at JAK1 and 1500 nM on JAK2.

For `Cc1noc(-c2ccc(Nc3nn(C(CC#N)C4CC4)cc3C(N)=O)cc2)n1` (stereo not drawn) [Example 4-36, 1-(2-cyano-1-cyclopropylethyl)-3-{[4-(3-methyl-1,2,4-oxadiazol-5-yl)phenyl]amino}-1H-pyrazole-4-carboxamide], the half-maximal inhibitory concentration (IC50) came out at 5 nM on JAK1 and 39 nM at JAK2.

For `Cc1noc(-c2ccc(Nc3nn([C@@H](CC#N)C4CC4)cc3C(N)=O)cc2)n1` (single isomer, unassigned) [Example 18-2, 1-[(1R or 1S)-2-cyano-1-cyclopropylethyl]-3-{[4-(3-methyl-1,2,4-oxadiazol-5-yl)phenyl]amino}-1H-pyrazole-4-carboxamide], the pIC50 on JAK1 (read-out: JAK1 IC50, recombinant GST-tagged catalytic domain, [ATP] 31.8 μM) is 7.47; on JAK2, 6.59.

As to `CCC(CC#N)n1cc(C(N)=O)c(Nc2ccccc2)n1` (stereo not drawn) [Example 1-7, 1-[1-(cyanomethyl)propyl]-3-(phenylamino)-1H-pyrazole-4-carboxamide], the IC50 was 48 nM at JAK1 and 546 nM at JAK2.

As to `CC(CC#N)(C1CC1)n1cc(C(N)=O)c(Nc2ccccc2)n1` (stereo not drawn) [Example 1-18, 1-(2-cyano-1-cyclopropyl-1-methylethyl)-3-(phenylamino)-1H-pyrazole-4-carboxamide], the IC50 was determined as 195 nM on JAK1 and 413 nM on JAK2.

With `N#CCC(C1CCC1)n1cc(C(N)=O)c(Nc2ccccc2)n1` (stereo not drawn) [Example 1-19, 1-(2-cyano-1-cydobutylethyl)-3-(phenylamino)-1H-pyrazole-4-carboxamide], the figures for the 50% inhibitory concentration (IC50) on JAK1 and at JAK2 were 31 nM and 272 nM, respectively.

For the compound `CC(C)(C)CC(CC#N)n1cc(C(N)=O)c(Nc2ccccc2)n1` (stereo not drawn) [Example 1-13], the values for the half-maximal inhibitory concentration (IC50) on JAK1 and on JAK2 were 598 nM and 1480 nM, respectively.

Take `COCCOC(=O)N1CCC([C@H](CC#N)n2cc(C(N)=O)c(Nc3ccc(F)cc3)n2)CC1` [Example 12-1, 2-Methoxyethyl 4-[(1S)-1-{4-carbamoyl-3-[(4-fluorophenyl)amino]-1H-pyrazol-1-yl}-2-cyanoethyl]piperidine-1-carboxylate]: the IC50 on JAK1 worked out at 181 nM; at JAK2, 1500 nM.

Consider `N#CCC(CC1CCOCC1)n1cc(C(N)=O)c(Nc2ccccc2)n1` (stereo not drawn) [Example 1-10, 1-[2-cyano-1-(tetrahydro-2H-pyran-4-ylmethyl)ethyl]-3-(phenylamino)-1H-pyrazole-4-carboxamide], for which the IC50 on JAK1 was determined as 289 nM; on JAK2, 1480 nM.

Take `CC(C)(C)OC(=O)N1Cc2cc(Nc3nn(C(CC#N)C4CC4)cc3C(N)=O)ccc2C1=O` (stereo not drawn) [Example 4-2, tert-butyl 5-{[4-carbamoyl-1-(2-cyano-1-cyclopropylethyl)-1H-pyrazol-3-yl]amino}-1-oxo-1,3-dihydro-2H-isoindole-2-carboxylate]: the half-inhibitory concentration (IC50) came to 2 nM on JAK1 and 35 nM on JAK2.

As for `N#CCC(C1CC1)n1cc(C(N)=O)c(Nc2ccccc2)n1` (stereo not drawn) [Example 1-1, 1-(2-Cyano-1-cyclopropylethyl)-3-(phenylamino)-1H-pyrazole-4-carboxamide], the results for the half-inhibitory concentration (IC50) at JAK1 and on JAK2 were 10 nM and 79 nM, respectively.

For the compound `N#CCC(C1CC1)n1cc(C(N)=O)c(Nc2ccc(-c3cnco3)cc2)n1` (stereo not drawn) [Example 4-24, 1-(2-cyano-1-cyclopropylethyl)-3-{[4-(1,3-oxazol-5-yl)phenyl]amino}-1H-pyrazole-4-carboxamide], the IC50 on JAK1 was determined as 41 nM; on JAK2, 262 nM.

As to `CS(=O)(=O)CCOC(=O)N1CCC(C(CC#N)n2cc(C(N)=O)c(Nc3ccc(F)cc3)n2)CC1` (stereo not drawn) [Example 11-3, 2-(methylsulfonyl)ethyl 4-(1-{4-carbamoyl-3-[(4-fluorophenyl)amino]-1H-pyrazol-1-yl}-2-cyanoethyl)piperidine-1-carboxylate], the 50% inhibitory concentration (IC50) at JAK1 was 122 nM; on JAK2, 1500 nM.

On to `N#CCC(C1CCOCC1)n1cc(C(N)=O)c(Nc2ccccc2)n1` (stereo not drawn) [Example 1-9, 1-[2-cyano-1-(tetrahydro-2H-pyran-4-yl)ethyl]-3-(phenylamino)-1H-pyrazole-4-carboxamide], for which the IC50 on JAK1 was determined as 241 nM; at JAK2, 1480 nM.

On to `N#CCC(C1CCCC1)n1cc(C(N)=O)c(Nc2ccc(C(=O)N3CCS(=O)(=O)CC3)cc2)n1` (stereo not drawn) [Example 1-5, 1-(2-cyano-1-cyclopentylethyl)-3-({4-[(1,1-dioxidothiomorpholin-4-yl)carbonyl]phenyl}amino)-1H-pyrazole-4-carboxamide], for which the IC50 was 9 nM at JAK1 and 31 nM on JAK2.

As for `N#CC[C@H](C1CC1)n1cc(C(N)=O)c(Nc2ccc3c(c2)CNC3=O)n1` (single isomer, unassigned) [Example 19-1, 1-[(1R or 1S)-2-cyano-1-cyclopropylethyl]-3-[(1-oxo-2,3-dihydro-1H-isoindol-5-yl)amino]-1H-pyrazole-4-carboxamide], on JAK2, the negative-log IC50 (pIC50) is 7.82.

For `N#CCc1cccc(Nc2nn(C(CC#N)C3CC3)cc2C(N)=O)c1` (stereo not drawn) [Example 4-9, 1-(2-cyano-1-cyclopropylethyl)-3-{[3-(cyanomethyl)phenyl]amino}-1H-pyrazole-4-carboxamide], the half-inhibitory concentration (IC50) at JAK2 was 27 nM.

Take `N#CCC(C1CC1)n1cc(C(N)=O)c(Nc2ccc3c(c2)CNC3=O)n1` (stereo not drawn) [Example 7, 1-(2-Cyano-1-cyclopropylethyl)-3-[(1-oxo-2,3-dihydro-4H-isoindol-5-yl)amino]-1H-pyrazole-4-carboxamide]: the half-inhibitory concentration (IC50) at JAK2 is 38 nM.

In the case of `N#CC[C@@H](C1CC1)n1cc(C(N)=O)c(Nc2ccc3c(c2)CNC3=O)n1` (single isomer, unassigned) [Example 19-2, 1-[(1R or 1S)-2-cyano-1-cyclopropylethyl]-3-[(1-oxo-2,3-dihydro-1H-isoindol-5-yl)amino]-1H-pyrazole-4-carboxamide], the pIC50 on JAK2 was 6.98.
